From PubChem BioAssay (NCI)
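A five-concentration, 48-hour dose response in 96-well plates underlies each endpoint, interpolated linearly between surrounding concentrations. TGI marks complete inhibition of growth.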

Key:
Test in all cases: growth of human tumour cells (NCI), 48 h
SK-MEL-5 melanoma = system: SK-MEL-5 melanoma
SNB-19 CNS = system: SNB-19 CNS
SK-OV-3 ovarian = system: SK-OV-3 ovarian
SW-620 colon = system: SW-620 colon
UO-31 renal = system: UO-31 renal
SF-268 CNS = system: SF-268 CNS
HCT-116 colon = system: HCT-116 colon
LOX IMVI melanoma = system: LOX IMVI melanoma
MALME-3M melanoma = system: MALME-3M melanoma
A549 NSCLC = system: A549 NSCLC
HS 578T breast = system: HS 578T breast
BT-549 breast = system: BT-549 breast
COLO 205 colon = system: COLO 205 colon
A498 renal = system: A498 renal

| Structure (SMILES) | TGI (SK-MEL-5 melanoma) | TGI (SNB-19 CNS) | TGI (SK-OV-3 ovarian) | TGI (SW-620 colon) | TGI (UO-31 renal) | TGI (SF-268 CNS) | TGI (HCT-116 colon) | TGI (LOX IMVI melanoma) | TGI (MALME-3M melanoma) | TGI (A549 NSCLC) | TGI (HS 578T breast) | TGI (BT-549 breast) | TGI (COLO 205 colon) | TGI (A498 renal) |
| --- | --- | --- | --- | --- | --- | --- | --- | --- | --- | --- | --- | --- | --- | --- |
| O=C(O)Cc1cccc2c1OC(c1ccccc1)C(Cl)(C(=O)c1ccccc1)C2=O (centres undefined) | 28.6 µM | > 100 µM | > 100 µM | 21.2 µM | 31.9 µM | 76.1 µM | 29.4 µM | 29.2 µM | 34.9 µM | 86 µM | 99.6 µM | > 100 µM |  |  |
| c1ccc(CSP234N5CCN2CCN3CCN4CC5)c(CSP234N5CCN2CCN3CCN4CC5)c1 | > 100 µM | > 100 µM |  | > 100 µM | > 100 µM | > 100 µM | > 100 µM | > 100 µM |  | > 100 µM | > 100 µM | > 100 µM | 47.3 µM |  |
| COc1ccc(-c2cc(=O)c3ccccc3[nH]2)c(OC)c1 |  | > 100 µM | > 100 µM | > 100 µM | > 100 µM | > 100 µM | > 100 µM | > 100 µM | > 100 µM | > 100 µM |  |  | > 100 µM |  |
| CC(=O)OCCOCn1cnc2c(Cl)nc(Cl)nc21 | 33 µM | > 100 µM |  | 30.7 µM | 36.4 µM | 36.6 µM | 32 µM | 15.8 µM | 33.3 µM |  | 40.4 µM | 36.4 µM | 38.1 µM | 91.2 µM |
| CCOP(=O)(O)C1C(CO)OC(n2ccc(=O)[nH]c2=O)C1O (centres undefined) | > 100 µM | > 100 µM |  | > 100 µM | > 100 µM | > 100 µM | > 100 µM | > 100 µM | > 100 µM | > 100 µM | > 100 µM | > 100 µM |  | > 100 µM |
| Cc1cc(=O)n2nc(CN3CCCCC3)sc2n1 | > 100 µM | > 100 µM | > 100 µM | > 100 µM | > 100 µM | > 100 µM | > 100 µM | > 100 µM | > 100 µM | > 100 µM | > 100 µM | > 100 µM | > 100 µM |  |
| NC(CCC(=O)O)C(=O)N1CCN(c2nc(N3CCCC3)c3nc(Cl)c(NCc4ccccc4)nc3n2)CC1 (centres undefined) | 20.9 µM | 34.4 µM | 32.9 µM | 51.3 µM | 21.6 µM | 29.1 µM | 28.4 µM | 32.3 µM | 33.6 µM | 26.1 µM | 60.2 µM | 25.4 µM | 23.9 µM |  |
| C=C1CCC23CC(CC[C@@H]2[C@@]12C[C@@H](c1ccoc1)OC2=O)OC3=O (some centres undefined) | > 100 µM | > 100 µM | > 100 µM | > 100 µM | > 100 µM | > 100 µM | > 100 µM |  | > 100 µM | > 100 µM |  |  | > 100 µM | > 100 µM |
| C/C=C(/C)C(=O)O[C@H]1C[C@@H]2[C@@H](O)c3occ(C)c3C[C@]2(C)[C@@H](C)C1 | 22.6 µM | 31.5 µM | 30.9 µM | 32.6 µM |  | 31 µM | 28.5 µM | 32.8 µM | 29.2 µM |  | 66.7 µM |  | 30.2 µM |  |
| CCCCCCCCCCN(CCCCCCCCCC)C(=O)COc1c2cc(C(C)(C)C)cc1Cc1cc(C(C)(C)C)cc(c1OCC(=O)N(CCCCCCCCCC)CCCCCCCCCC)Cc1cc(C(C)(C)C)cc(c1OCC(=O)N(CCCCCCCCCC)CCCCCCCCCC)Cc1cc(C(C)(C)C)cc(c1OCC(=O)N(CCCCCCCCCC)CCCCCCCCCC)C2 | 26.4 µM | 22.1 µM | 27.6 µM | 14.2 µM | 37.1 µM | 29.9 µM | 5.6 µM | 23.7 µM | 28.7 µM | 30.4 µM |  |  | 29.2 µM | 29.1 µM |
| CSC1=N/C(=C\c2ccccc2)C(=O)N1CN1CCCCC1 | > 100 µM | > 100 µM | > 100 µM | > 100 µM | > 100 µM | > 100 µM | > 100 µM | > 100 µM | > 100 µM | > 100 µM | > 100 µM |  | > 100 µM | > 100 µM |
| O=C1C(Cl)C(c2cccc(Cl)c2)N1c1ccc(-n2c(=S)[nH]c3ccccc3c2=O)cc1 (centres undefined) | 31.4 µM | 16.3 µM | 72.5 µM | > 100 µM | 49 µM | 39 µM | 85.3 µM | 42.5 µM | > 100 µM | 81.5 µM | 62.1 µM | > 100 µM | 77.9 µM |  |
| CNC(=O)N1CN(c2ccccc2)C2(CCN(CCCC3(c4ccc(F)cc4)OCCO3)CC2)C1=O | > 100 µM | > 100 µM | > 100 µM | > 100 µM | > 100 µM | > 100 µM | > 100 µM | > 100 µM | > 100 µM | > 100 µM | > 100 µM |  | > 100 µM | > 100 µM |
| CC(=NNC(=S)Nc1ccc(C)cc1)c1cccc(C(C)=NNC(=S)Nc2ccc(C)cc2)n1 | 38.7 µM | > 100 µM | 97.6 µM | 59.8 µM | > 100 µM | > 100 µM | 45.3 µM | 91.7 µM | 46.9 µM | > 100 µM | > 100 µM |  | 43.8 µM | 80.9 µM |
| COc1cc(OC)cc(-c2nc3cc(F)ccc3s2)c1 | > 100 µM | 49.2 µM | 31.4 µM | > 100 µM | > 100 µM | 32 µM | 38.8 µM | > 100 µM | > 100 µM | > 100 µM |  | 24.7 µM | > 100 µM | 62.9 µM |
| N#Cc1c(-c2ccccc2)cc(Nc2cccc(C(F)(F)F)c2)n2c1nc1ccccc12 | 1.78 µM |  | 8.73 µM | 14.2 µM |  | 11.5 µM | 3.52 µM | 3.95 µM | 8.32 µM |  |  | 14.1 µM | 2.39 µM | 12.6 µM |
| CCOC(=O)C1(C(=O)OCC)C[C@H](C)[C@](C)(O)C1 | > 100 µM | > 100 µM | > 100 µM | > 100 µM | > 100 µM | > 100 µM | > 100 µM | > 100 µM | > 100 µM | > 100 µM | > 100 µM |  | > 100 µM | > 100 µM |
| Cc1ccc(S(=O)(=O)OC(c2ccc(Cl)cc2Cl)C2OC(=O)c3ccccc32)cc1 (centres undefined) | > 100 µM | > 100 µM |  | > 100 µM | 95.6 µM | > 100 µM | > 100 µM | > 100 µM | > 100 µM | > 100 µM |  |  | > 100 µM |  |
